# Results taken from paper PMC10916402, “Meropenem-ANT3310, a unique β-lactam-β-lactamase inhibitor combination with expanded antibacterial spectrum against Gram-negative pathogens including carbapenem-resistant Acinetobacter baumannii” (Antimicrobial Agents and Chemotherapy, 2024).
# Read-outs that look alike come from different tables or passages of the source.
# Assays:
# [1] = test system: A. baumannii ACC00445 (OXA-23); test: Murine lung infection model; type: in vivo, neutropenic male CD-1 mice; conditions: 14-h model, MEM IV 30 mg/kg
# [2] = test system: carbapenem-resistant Acinetobacter baumannii (CRAB) clinical isolates; test: Broth microdilution MIC, CRAB isolates; type: cell-based; conditions: for CLSI % Res / CLSI % Sus / EUCAST % Res / EUCAST % Sus: CRAB; for CLSI % Res / CLSI % Sus: CLSI BP; for CLSI % Res: for MEM-ANT3310 % at ≥16 µg/mL; for CLSI % Sus: for MEM-ANT3310 % inhibited at ≤8 µg/mL; for EUCAST % Res / EUCAST % Sus: EUCAST BP; for MIC90: read-out: MIC90
# Summary of the method: (§1)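 Broth microdilution per CLSI and EUCAST in cation-adjusted Mueller Hinton broth, iron-depleted for cefiderocol; ANT3310 panels prepared fresh on test day. Isolates collected 2018–2019, identity confirmed by MALDI-TOF. MIC taken as first well without visible growth, interpreted with 2023 CLSI and EUCAST breakpoints.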
# [3] = test system: OXA-producing Enterobacterales (OXA-CRE); test: organism not typed; type: cell-based
# Summary of the method: as §1
# [4] = test system: KPC-producing Enterobacterales (KPC-CRE); test: organism not typed; type: cell-based
# Summary of the method: as §1
# [5] = test system: A. baumannii ACC00445 (OXA-23); test: Murine thigh infection model; type: in vivo, neutropenic male CD-1 mice; conditions: 9-h model, MEM 300 mg/kg IV every 2 h alone
# [6] = design: method as in PMID 14517194, PMID 20851549; conditions: 2 g MEM q8h as a 3-h IV infusion; cited from earlier work
# [7] = test system: P. aeruginosa clinical isolates; test: Broth microdilution MIC, P. aeruginosa clinical isolates; type: cell-based, Pseudomonas aeruginosa; conditions: 502 P. aeruginosa, 2019 global collection
# Protocol: All isolates were randomly selected from the frozen culture collection of IHMA collected in 2018 and 2019. Matrix-assisted laser desorption ionization-time of flight mass spectrometry was used to confirm the identity of the organisms tested (Bruker Daltonics, Bremen, Germany).
# (§2) MICs for all antimicrobial agents were determined at IHMA by broth microdilution in accordance with both CLSI ([17]) and EUCAST ([18]) guidelines. Microtiter panels were prepared by IHMA and stored at −70°C in cation-adjusted Mueller Hinton broth (CAMHB) (Becton Dickinson). Iron-depleted CAMHB was used to test cefiderocol. Panels containing ANT3310 were prepared fresh on the day of testing. […] MIC values corresponded to the first well with no visible growth. Quality control testing was performed on each day of testing with E. coli ATCC 25922, P. aeruginosa ATCC 27853, K. pneumoniae ATCC 700603 and BAA 1705, and A. baumannii NCTC 13304. MICs were interpreted using 2023 CLSI ([17]) and EUCAST ([18]) BPs.
# [8] = design: method as in PMID 32297801; conditions: 2 g MEM q8h as a 3-h IV infusion, MEM-vaborbactam clinical trials; cited from earlier work
# [9] = test system: A. baumannii clinical isolates; test: Broth microdilution MIC, A. baumannii clinical isolates; type: cell-based, Acinetobacter baumannii; conditions: for CLSI % Res / CLSI % Sus: CLSI BP; for CLSI % Res: for MEM-ANT3310 % at ≥16 µg/mL; for CLSI % Sus: for MEM-ANT3310 % inhibited at ≤8 µg/mL; for EUCAST % Res / EUCAST % Sus: EUCAST BP
# Summary of the method: as §1
# [10] = test system: A. baumannii ACC00445 (OXA-23); test: MIC against the isolate used in the infection models; type: cell-based; conditions: Acinetobacter baumannii
# Protocol: as §2
# [11] = 2018 Global collection, CRAB (MEM MICs >4 µg/mL), N 363
# [12] = 2019 Global collection, CRAB (MEM MICs >4 µg/mL), N 340
# [13] = 252 OXA-producing Enterobacterales, EUCAST BP
# [14] = 180 KPC-producing Enterobacterales, EUCAST BP
# [15] = 2018 Global collection, All A. baumannii, N 500
# [16] = 2019 Global collection, All A. baumannii, N 405
smiles,measurement,setting,value
"C[C@@H](O)[C@H]1C(=O)N2C(C(=O)O)=C(S[C@@H]3CN[C@H](C(=O)N(C)C)C3)[C@H](C)[C@H]12 [MEM, meropenem]",efficacy of MEM alone,[1],No efficacy
same,MIC50,[2]; [11],>32 µg/mL
same,Number of isolates inhibited at MIC of 8 µg/mL,[2]; [11],5
same,Number of isolates inhibited at MIC of 16 µg/mL,[2]; [11],16
same,Number of isolates inhibited at MIC of 32 µg/mL,[2]; [11],64
same,Number of isolates inhibited at MIC of >32 µg/mL,[2]; [11],278
same,CLSI % Res,"[2]; 2018 Global collection, N 363",100%
same,CLSI % Sus,"[2]; 2018 Global collection, N 363",0%
same,EUCAST % Res,"[2]; 2018 Global collection, N 363",98.6%
same,EUCAST % Sus,"[2]; 2018 Global collection, N 363",0%
same,MIC50,[2]; [12],>32 µg/mL
same,Number of isolates inhibited at MIC of 8 µg/mL,[2]; [12],9
same,Number of isolates inhibited at MIC of 16 µg/mL,[2]; [12],12
same,Number of isolates inhibited at MIC of 32 µg/mL,[2]; [12],66
same,Number of isolates inhibited at MIC of >32 µg/mL,[2]; [12],253
same,CLSI % Res,"[2]; 2019 Global collection, N 340",100%
same,CLSI % Sus,"[2]; 2019 Global collection, N 340",0%
same,EUCAST % Res,"[2]; 2019 Global collection, N 340",97.3%
same,EUCAST % Sus,"[2]; 2019 Global collection, N 340",0%
same,MIC90,"[2]; Acinetobacter baumannii, 2018 Global collection, CRAB (MEM MICs >4 µg/mL), N 363",> 32 µg/mL
same,MIC90,"[2]; Acinetobacter baumannii, 2019 Global collection, CRAB (MEM MICs >4 µg/mL), N 340",> 32 µg/mL
same,MIC50,"[2]; Acinetobacter baumannii, CRAB isolates 2018–2019 (n = 703), ANT3310 at 8 µg/mL, read-out: MIC50",> 32 µg/mL
same,MIC90,"[2]; Acinetobacter baumannii, CRAB isolates 2018–2019 (n = 703), ANT3310 at 8 µg/mL",> 32 µg/mL
same,MIC50,[3],16 µg/mL
same,MIC90,[3],> 32 µg/mL
same,MIC90,"[3]; 252 OXA-producing Enterobacterales, 2018 global collection",>32 µg/mL
same,CLSI % Res,"[3]; 252 OXA-producing Enterobacterales, CLSI BP, for MEM-ANT3310 % at ≥16 µg/mL",89.7%
same,CLSI % Sus,"[3]; 252 OXA-producing Enterobacterales, CLSI BP, for MEM-ANT3310 % inhibited at ≤8 µg/mL",0%
same,EUCAST % Res,[3]; [13],74.6%
same,EUCAST % Sus,[3]; [13],10.5%
same,MIC50,[4],> 32 µg/mL
same,MIC90,[4],> 32 µg/mL
same,MIC90,"[4]; 180 KPC-producing Enterobacterales, 2018 global collection",>32 µg/mL
same,CLSI % Res,"[4]; 180 KPC-producing Enterobacterales, CLSI BP, for MEM-ANT3310 % at ≥16 µg/mL",98.9%
same,CLSI % Sus,"[4]; 180 KPC-producing Enterobacterales, CLSI BP, for MEM-ANT3310 % inhibited at ≤8 µg/mL",0%
same,EUCAST % Res,[4]; [14],88.3%
same,EUCAST % Sus,[4]; [14],1.1%
same,bacterial counts compared to the vehicle-treated group,[5],No reductions in bacterial counts
same,probability of target attainment for MEM MICs ≤8 µg/mL,[6],> 90%
same,Number of isolates inhibited at MIC of 0.25 µg/mL,[7],97
same,Number of isolates inhibited at MIC of 0.5 µg/mL,[7],109
same,Number of isolates inhibited at MIC of 1 µg/mL,[7],87
same,Number of isolates inhibited at MIC of 2 µg/mL,[7],27
same,Number of isolates inhibited at MIC of 4 µg/mL,[7],25
same,Number of isolates inhibited at MIC of 8 µg/mL,[7],27
same,Number of isolates inhibited at MIC of 16 µg/mL,[7],15
same,Number of isolates inhibited at MIC of 32 µg/mL,[7],9
same,Number of isolates inhibited at MIC of >32 µg/mL,[7],26
same,Number of isolates inhibited at MIC of ≤0.125 µg/mL,[7],80
same,MIC50,"[7]; Pseudomonas aeruginosa, read-out: MIC50",0.5 µg/mL
same,MIC90,"[7]; Pseudomonas aeruginosa, read-out: MIC90",8 µg/mL
same,safety and tolerability,[8],generally safe and well tolerated
same,"% of isolates resistant to MEM (CLSI, MIC ≥8 µg/mL)","[9]; 905 A. baumannii isolates, overall",78%
same,MIC50,[9]; [15],>32 µg/mL
same,MIC90,[9]; [15],>32 µg/mL
same,Number of isolates inhibited at MIC of 0.25 µg/mL,[9]; [15],52
same,Number of isolates inhibited at MIC of 0.5 µg/mL,[9]; [15],42
same,Number of isolates inhibited at MIC of 1 µg/mL,[9]; [15],21
same,Number of isolates inhibited at MIC of 2 µg/mL,[9]; [15],9
same,Number of isolates inhibited at MIC of 4 µg/mL,[9]; [15],6
same,Number of isolates inhibited at MIC of 8 µg/mL,[9]; [15],5
same,Number of isolates inhibited at MIC of 16 µg/mL,[9]; [15],16
same,Number of isolates inhibited at MIC of 32 µg/mL,[9]; [15],64
same,Number of isolates inhibited at MIC of >32 µg/mL,[9]; [15],278
same,Number of isolates inhibited at MIC of ≤0.125 µg/mL,[9]; [15],7
same,CLSI % Res,[9]; [15],72.6%
same,CLSI % Sus,[9]; [15],26.2%
same,EUCAST % Res,[9]; [15],71.6%
same,EUCAST % Sus,[9]; [15],26.2%
same,MIC50,[9]; [16],>32 µg/mL
same,Number of isolates inhibited at MIC of 0.25 µg/mL,[9]; [16],31
same,Number of isolates inhibited at MIC of 0.5 µg/mL,[9]; [16],18
same,Number of isolates inhibited at MIC of 1 µg/mL,[9]; [16],1
same,Number of isolates inhibited at MIC of 2 µg/mL,[9]; [16],5
same,Number of isolates inhibited at MIC of 4 µg/mL,[9]; [16],3
same,Number of isolates inhibited at MIC of 8 µg/mL,[9]; [16],9
same,Number of isolates inhibited at MIC of 16 µg/mL,[9]; [16],12
same,Number of isolates inhibited at MIC of 32 µg/mL,[9]; [16],66
same,Number of isolates inhibited at MIC of >32 µg/mL,[9]; [16],253
same,Number of isolates inhibited at MIC of ≤0.125 µg/mL,[9]; [16],7
same,CLSI % Res,[9]; [16],83.9%
same,CLSI % Sus,[9]; [16],15.3%
same,EUCAST % Res,[9]; [16],81.7%
same,EUCAST % Sus,[9]; [16],15.3%
same,MEM-resistance rate,[9]; A. baumannii isolates from Asia/Pacific,74%
same,MEM-resistance rate,[9]; A. baumannii isolates from Middle East,91%
same,MEM-resistance rate,[9]; A. baumannii isolates from North America,40%
same,MIC90,"[9]; Acinetobacter baumannii, 2018 Global collection, All A. baumannii, N 500, read-out: MIC90",> 32 µg/mL
same,MIC90,"[9]; Acinetobacter baumannii, 2019 Global collection, All A. baumannii, N 405, read-out: MIC90",> 32 µg/mL
same,MIC90,"[9]; Acinetobacter baumannii, A. baumannii, one or both of the 2018/2019 collections, read-out: MIC90",≥ 32 µg/mL
same,MIC50,"[9]; Acinetobacter baumannii, combined A. baumannii 2018–2019 collection (n = 905), ANT3310 at 8 µg/mL, read-out: MIC50",> 32 µg/mL
same,MIC90,"[9]; Acinetobacter baumannii, combined A. baumannii 2018–2019 collection (n = 905), ANT3310 at 8 µg/mL, read-out: MIC90",> 32 µg/mL
same,MIC,[10],64 µg/mL
